In patent publication EP3553061A1, “NEW INHIBITORS OF BONE RESORPTION” (CENTRE NATIONAL DE LA RECHERCHE SCIENTIFIQUE (CNRS), priority 2018, dated 2019):
pIC50: −log10 of the molar value. “And” between values parts separate entries of the source, which are not always exact repeats. Identical values can stand only once. Like-named read-outs stand apart in the source and are kept apart here. Each block holds one molecule with its values, some of them ahead of it.

Biological target: T1, human Dock5 (Homo sapiens, UniProt Q9H7D0)
T1 construct: plasmid expressing the catalytic DHR2 domain of mouse or human Dock5; expressed in transfected cells; host or cells: 293T cells
Assay: Pull down assay of Rac activation by human Dock5 DHR2 in transfected 293T cells
Type: cell-based
Settings: for inhibition at 100 µM: read-out: Inhibition; for pIC50: 1 hour treatment
Protocol: Compounds E73, E88 and E78 were tested for their inhibiting effect of the activation of Rac by mouse Dock5 of and for certain human Dock5 according to a screening test using a pull down assay as represented in Figure 1.
Methodology (Figure 1): cells 293T seeded onto 100 mm diameter plates in a DMEM culture medium containing 10% serum in an incubator in 5.5% CO2 humidified atmosphere at 37°C. When they reach the density of 5x10^6 cells per plate, cells are transfected with 8 µg of plasmid expressing the catalytic DHR2 domain of mouse or human Dock5 in order to activate endogenous GTPase Rac. After 24 hours, the cells are lifted using trypsin and are seeded 10^6 per well in 6-well plates of 35 mms in diameter. The following day, the cells are put in contact during one hour with the compound, in a mother solution at 20 mM into 100% DMSO, to a test concentration of 100 µM into 0.5% DMSO in the DMEM medium containing 0.1% of BSA. The basal activation of Rac by Dock5 is measured from the cells treated with 0.5% DMSO. After treatment, the cells are observed under the optical microscope to make sure of the absence of any toxic effect of the compound. If cell suffering is detected, the test is invalidated and the compound is retested at a lower dosage. The cells are then lysed in 100 µl of the pull down buffer (10% glycerol, 50 mm Tris pH 7.4, 100 mM NaCl, 1% IGEPAL® CA-630 (SIGMA I3021), 2 mM MgCl2 supplemented with proteases inhibitors) and the lysate is incubated during one hour with 20 µg of sepharose beads coupled with the fusion protein GST-PAK-CRIB, which binds specifically the activated form of GTPase Rac, which is bound to GTP. After centrifugation and washings, the proteins associated with the beads, including active Rac GTPase, are denatured and loaded on an SDS PAGE gel. […] For each compound tested, the level of active Rac GTPase is quantified using the Image J software and is normalized to the concentration of total protein in the whole cell lysate. The efficiency of the molecule is defined by the level of active Rac after treatment compared to the level of active Rac in the cells treated with DMSO (control). An activity is considered as inhibitory if the level of Rac activation decreases by at least 10%, 20%, in particular at least 30%, 40%, and preferably at least 50% compared to the control treated with DMSO (Table 1).
The same approach was used to test the potency of molecules of the 48ED family, on the activity of human Dock5 DHR2 (Table 2). Table 2: Inhibitory activity of the compounds of the 48ED family on human Dock5 activity.

[1] = HEK-293T, Table 2, human Dock5 DHR2, test concentration 100 µM, 1 hour, replicate values, Negative = Rac activation does not decrease
[2] = HEK-293T, Table 3, human Dock5, at 50µM
[3] = HEK-293T, Table 3, human Dock5, test concentration 100 µM, 1 hour, replicate values
[4] = Table 3, human Dock5, test concentration 100 µM, 1 hour, replicate values, 100 µM
[5] = Table 2, human Dock5 DHR2, test concentration 100 µM, 1 hour, replicate values, Negative = Rac activation does not decrease
[6] = Table 2, human Dock5 DHR2, test concentration 100 µM, 1 hour, replicate values, Negative = Rac activation does not decrease, 100 µM

T1 sequence (Q9H7D0 1231-1642 limits assumed): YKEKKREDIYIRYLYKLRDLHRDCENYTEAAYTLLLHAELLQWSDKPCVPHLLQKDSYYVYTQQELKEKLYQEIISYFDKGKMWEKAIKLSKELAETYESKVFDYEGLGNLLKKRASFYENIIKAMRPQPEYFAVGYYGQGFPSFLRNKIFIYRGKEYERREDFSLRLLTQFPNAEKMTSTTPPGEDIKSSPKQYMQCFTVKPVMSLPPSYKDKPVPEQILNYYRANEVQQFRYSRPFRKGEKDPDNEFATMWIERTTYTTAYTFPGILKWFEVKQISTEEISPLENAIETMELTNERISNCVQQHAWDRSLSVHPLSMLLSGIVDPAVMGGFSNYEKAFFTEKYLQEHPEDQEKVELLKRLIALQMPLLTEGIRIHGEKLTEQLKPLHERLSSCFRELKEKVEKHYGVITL

SMILES: O=S1(=O)N(c2ccccc2)C[C@H](O)[C@]12CCNC2 [E123]
- inhibition at 100 µM [1]: 10%

SMILES: Cn1cc(CN2CC[C@@]3(C2)[C@@H](O)CN(c2ccccc2)S3(=O)=O)c2ccccc21 (racemic) [E204, rac-(4S,5R)-4-hydroxy-7-((1-methyl-1H-indol-3-yl)methyl)-2-phenyl-1-thia-2,7-diazaspiro[4.4]nonane 1,1-dioxide]
- inhibition at 50 µM [2]: 60%
- inhibition at 100 µM [3]: 100%
- Inhibition [4]: 95%
- pIC50 (human Dock5): 4.48

SMILES: O=S1(=O)N(c2ccccc2)C[C@H](O)[C@]12CCN(Cc1cccs1)C2 [E208]
- inhibition at 100 µM [3]: 35%

SMILES: CN1C[C@@H](O)[C@]2(CCN(Cc3ccccc3)C2)S1(=O)=O [E121]
- Inhibition [5]: Negative

SMILES: CS(=O)(=O)c1ccc(CN2CC[C@@]3(C2)[C@@H](O)CN(c2ccccc2)S3(=O)=O)cc1 [E131]
- Inhibition [6]: 50% and 70% and 90%

SMILES: O=S1(=O)N(c2ccccc2)C[C@H](O)[C@]12CCN(Cc1ccc(F)cc1)C2 [E127]
- Inhibition [6]: 40% and 50% and 85% and 90%

SMILES: N#Cc1ccc(CN2CC[C@@]3(C2)[C@@H](O)CN(c2ccccc2)S3(=O)=O)cc1 [E129]
- Inhibition [6]: 70% and 90% and 95%

SMILES: O=S1(=O)N(c2ccccc2)C[C@H](O)[C@]12CCN(Cc1cc3ccccc3o1)C2 (racemic) [E205, rac-(4S,5R)-7-(benzofuran-2-ylmethyl)-4-hydroxy-2-phenyl-1-thia-2,7-diazaspiro[4.4]nonane 1,1-dioxide]
- inhibition at 50 µM [2]: 70%
- inhibition at 100 µM [3]: 100%
- pIC50 (human Dock5): 4.37

SMILES: Cn1cc(CN2CC[C@@]3(C2)[C@@H](O)CN(c2ccccc2)S3(=O)=O)cn1 [E201]
- Inhibition [4]: 60% and 10% (2×)

SMILES: O=S1(=O)N(c2ccccc2)C[C@H](O)[C@]12CCN(Cc1ccc3c(c1)OCO3)C2 [E206]
- Inhibition [4]: 50% and 100% and 70%

SMILES: O=C(CC1CCCC1)N1CC[C@@]2(C1)[C@@H](O)CN(c1ccccc1)S2(=O)=O [E135]
- Inhibition [6]: 70% and 50% and 95%

SMILES: O=S1(=O)N(c2ccccc2)C[C@H](O)[C@]12CCN(Cc1cnc3ccccc3c1)C2 (racemic) [E203, rac-(4S,5R)-4-hydroxy-2-phenyl-7-(quinolin-3-ylmethyl)-1-thia-2,7-diazaspiro[4.4]nonane 1,1-dioxide]
- inhibition at 50 µM [2]: 95%
- Inhibition (Table 3, human Dock5, at 50µM): 90%
- pIC50 (human Dock5): 4.66

SMILES: CS(=O)(=O)N1CC[C@@]2(C1)[C@@H](O)CN(c1ccccc1)S2(=O)=O [E138]
- inhibition at 100 µM [1]: 30%

SMILES: CN1C[C@H](Oc2ccccn2)[C@]2(CCN(Cc3ccccc3)C2)S1(=O)=O [E126]
- inhibition at 100 µM [1]: 10%

SMILES: O=S1(=O)N(c2ccccc2)C[C@@H](O)[C@]12CCN(Cc1ccccc1F)C2 [E139]
- Inhibition [6]: 60% and 10%

SMILES: O=S1(=O)N(c2ccccc2)C[C@H](O)[C@]12CCN(Cc1ccc3ccccc3c1)C2 [E132]
- inhibition at 10 µM (HEK-293T, Table 2, human Dock5 DHR2, at 10µM): 50%
- inhibition at 100 µM [1]: 70%
- Inhibition (Table 2, human Dock5 DHR2, at 10µM): 60%

SMILES: O=S1(=O)N(c2ccccc2)C[C@H](O)[C@]12CCN(C1CCCCCC1)C2 [E207]
- inhibition at 100 µM [3]: 20%

SMILES: CO[C@H]1CN(C)S(=O)(=O)[C@@]12CCN(Cc1ccccc1)C2 [E124]
- Inhibition [5]: Negative

SMILES: Cc1cc(C(=O)N2CC[C@@]3(C2)[C@@H](O)CN(c2ccccc2)S3(=O)=O)no1 [E136]
- inhibition at 100 µM [1]: 30%

SMILES: O=S1(=O)N(c2ccccc2)C[C@H](O)[C@]12CCN(Cc1cccc(C(F)(F)F)c1)C2 [E128]
- inhibition at 50 µM (HEK-293T, Table 2, human Dock5 DHR2, at 50µM): 70%
- inhibition at 100 µM [1]: 90%

SMILES: O=S1(=O)N(c2ccccc2)C[C@H](O)[C@]12CCN(Cc1ccccc1)C2 [E118]
- Inhibition [6]: 85% (2×) and 60% and 55%

SMILES: O=C(c1ccccc1)N1CC[C@@]2(C1)[C@@H](O)CN(c1ccccc1)S2(=O)=O [E137]
- Inhibition [6]: 70% and 40% and 15%

SMILES: O=S1(=O)N(c2ccccc2)C[C@H](O)[C@]12CCN(CC1CCCCC1)C2 [E198]
- Inhibition [4]: 95% and 10% and 85%

SMILES: O=S1(=O)N(c2ccccc2)C[C@H](O)[C@]12CCN(Cc1ccccc1Cl)C2 (racemic) [E196, rac-(4S,5R)-7-(2-chlorobenzyl)-4-hydroxy-2-phenyl-1-thia-2,7-diazaspiro[4.4]nonane 1,1-dioxide]
- inhibition at 50 µM [2]: 40%
- Inhibition [4]: 95% (2×) and 35%
- pIC50 (human Dock5): 4.46

SMILES: O=S1(=O)N(c2ccccc2)C[C@@H](O)[C@]12CCN(Cc1ccccc1)C2 [E119]
- inhibition at 100 µM [1]: 25%

SMILES: COC(=O)c1ccc(CN2CC[C@@]3(C2)[C@H](O)CN(c2ccccc2)S3(=O)=O)cc1 [E140]
- inhibition at 100 µM [1]: 50%

SMILES: CC(=O)N1CC[C@@]2(C1)[C@@H](O)CN(c1ccccc1)S2(=O)=O [E133]
- inhibition at 100 µM [1]: 5%

SMILES: CO[C@@H]1CN(C)S(=O)(=O)[C@@]12CCN(Cc1ccccc1)C2 [E125]
- Inhibition [5]: Negative

Continued, values first:

- inhibition at 100 µM [3]: 35%
SMILES: COc1cc(CN2CC[C@@]3(C2)[C@@H](O)CN(c2ccccc2)S3(=O)=O)cc(OC)c1 [E209]

- inhibition at 50 µM [2]: 20%
- inhibition at 100 µM [3]: 70%
SMILES: O=S1(=O)N(c2cccc(Cl)c2)C[C@@H](O)[C@]12CCN(Cc1ccccc1)C2 [E236]

- inhibition at 100 µM [3]: 90%
- Inhibition (Table 3, human Dock5, test concentration 100 µM, 1 hour, replicate values): 90%/ 90%
SMILES: CN(C)c1ccc(CN2CC[C@@]3(C2)[C@@H](O)CN(c2ccccc2)S3(=O)=O)cc1 [E213]

- Inhibition [4]: 85% and 55% and 40% and 60%
SMILES: O=S1(=O)N(C2CCCCC2)C[C@@H](O)[C@]12CCN(Cc1ccccc1)C2 [E234]

- inhibition at 50 µM [2]: 90%
- pIC50 (human Dock5): 4.36
SMILES: COc1ccc(CN2CC[C@@]3(C2)[C@@H](O)CN(c2ccccc2)S3(=O)=O)cc1F (racemic) [E211, rac-(4S,5R)-7-(3-fluoro-4-methoxybenzyl)-4-hydroxy-2-phenyl-1-thia-2,7-diazaspiro[4.4]nonane 1,1-dioxide]

- inhibition at 100 µM [3]: 80%
- Inhibition [4]: 85%
SMILES: O=S1(=O)N(c2cccc(Cl)c2)C[C@H](O)[C@]12CCN(Cc1ccccc1)C2 [E235]

- inhibition at 50 µM [2]: 70%
SMILES: CCOC(=O)CO[C@H]1CN(c2ccccc2)S(=O)(=O)[C@@]12CCN(Cc1ccccc1)C2 [E231]

- inhibition at 100 µM [3]: 35%
SMILES: CO[C@H]1CN(Cc2ccccc2)S(=O)(=O)[C@@]12CCN(Cc1ccccc1)C2 [E225]

- inhibition at 100 µM [3]: 70%
- Inhibition [4]: 60%
SMILES: O=S1(=O)N(C2CCCCC2)C[C@H](O)[C@]12CCN(Cc1ccccc1)C2 [E233]

- inhibition at 50 µM [2]: 65%
- pIC50 (human Dock5): 5.10
SMILES: COc1ccc(N2CCC3(CCN(Cc4cccc(Cl)c4)C3)C2=O)cc1C (stereo not shown) [E228, 7-(3-chlorobenzyl)-2-(4-methoxy-3-methylphenyl)-2,7-diazaspiro[4.4]nonan-1-one]

- inhibition at 50 µM [2]: 55%
- pIC50 (human Dock5): 4.70
SMILES: O=C1N(c2cccc(F)c2)CCC12CCN(Cc1cccc(Cl)c1)C2 (stereo not shown) [E226, 7-(3-chlorobenzyl)-2-(3-fluorophenyl)-2,7-diazaspiro[4.4]nonan-1-one]

- inhibition at 100 µM [1]: 25%
SMILES: O=S1(=O)N(c2ccccc2)C[C@H](O)[C@]12CCN(CCc1ccccc1)C2 [E217]

- inhibition at 100 µM [3]: 98%
- Inhibition [4]: 100%
SMILES: O=S1(=O)N(c2ccccc2)C[C@H](O)[C@]12CCN(Cc1ccc3[nH]ccc3c1)C2 [E212]

- Inhibition [4]: 90% and 50% and 60%
SMILES: COc1ccc(N2CCC3(CCN(Cc4cccc(Cl)c4)C3)C2=O)cc1OC (stereo not shown) [E227]

- Inhibition [4]: 80% and 45% and 30% and 70%
SMILES: CNC(=O)CO[C@H]1CN(c2ccccc2)S(=O)(=O)[C@@]12CCN(Cc1ccccc1)C2 [E230]

- Inhibition [4]: 90% and 50%
SMILES: N#Cc1cccc(CN2CC[C@@]3(C2)[C@@H](O)CN(c2ccccc2)S3(=O)=O)c1 [E214]

- inhibition at 50 µM [2]: 65%
SMILES: O=S1(=O)N(c2ccccc2)C[C@H](OCCO)[C@]12CCN(Cc1ccccc1)C2 [E229]

- inhibition at 50 µM [2]: 85%
- pIC50 (human Dock5): 4.49
SMILES: O=S1(=O)N(c2ccccc2)C[C@H](O)[C@]12CCN(Cc1ccc3c(c1)CCC3)C2 (racemic) [E210, rac-(4S,5R)-7-((2,3-dihydro-1H-inden-5-yl)methyl)-4-hydroxy-2-phenyl-1-thia-2,7-diazaspiro[4.4]nonane 1,1-dioxide]
